Reference: US10174024B2, “5H-pyrido[3,2-B]indole compounds as anticancer agents” (BRISTOL-MYERS SQUIBB COMPANY, priority 2015, dated 2019)
pIC50: −log10 of the molar value.

Target: BRD4 (Homo sapiens, UniProt O60885)
Assay: Time Resolved Fluorescence Resonance Energy Transfer (TR-FRET) binding assay, FRET BRD4
Details: one of the FRET assays described (BRD4 bromodomain construct not specified); read-out: FRET BRD4 IC50

[2H]C([2H])([2H])Oc1nnn(C)c1-c1ccc2c3ncc(-c4c(OC([2H])([2H])[2H])nnn4C)cc3n([C@H](c3ccccc3)C3CCOCC3)c2c1 [Example 29, 4-(^2H3)Methoxy-5-{7-[4-(^2H)methoxy-1-methyl-1H-1,2,3-triazol-5-yl]-5-[(S)-oxan-4-yl-(phenyl)methyl]-5H-pyrido[3,2-b]indol-3-yl}-1-methyl-1H-1,2,3-triazole]
pIC50: > 8.30

[2H]C([2H])([2H])n1nnc(OC)c1-c1ccc2c3ncc(-c4c(OC)nnn4C([2H])([2H])[2H])cc3n([C@H](c3ccccc3)C3CCOCC3)c2c1 [Example 30, 4-Methoxy-5-{7-[4-methoxy-1-(^2H3)methyl-1H-1,2,3-triazol-5-yl]-5-[(S)-oxan-4-yl(phenyl)-methyl]-5H-pyrido[3,2-b]indol-3-yl}-1-(^2H3)methyl-1H-1,2,3-triazole]
pIC50: > 8.30

[2H]C([2H])([2H])c1nnn(C)c1-c1ccc2c3ncc(-c4c(C([2H])([2H])[2H])nnn4C)cc3n([C@H](c3ccccc3)C3CCOCC3)c2c1 [Example 31, 4-(^2H3)Methyl-1-methyl-5-{7-[4-(^2H3)methyl-1-methyl-1H-1,2,3-triazol-5-yl]-5-[(S)-oxan-4-yl(phenyl)methyl]-5H-pyrido[3,2-b]indol-3-yl}-1H-1,2,3-triazole]
pIC50: > 9.00

COc1nnn(C)c1-c1ccc2c3ncc(-c4c(OC)nnn4C)cc3n([C@H](c3ccccc3)C3CCOCC3)c2c1 [Example 32, 4-Methoxy-5-[7-(4-methoxy-1-methyl-1H-1,2,3-triazol-5-yl)-5-[(S)-oxan-4-yl(phenyl)methyl]-5H-pyrido[3,2-b]indol-3-yl]-1-methyl-1H-1,2,3-triazole]
pIC50: > 9.00

[2H]C([2H])([2H])c1nnn(C)c1-c1cnc2c3c(N4CCCS4(=O)=O)ccc(S(C)(=O)=O)c3n([C@H](c3ccc(F)cc3)C3CCOCC3)c2c1 [Example 33, 2-{5-[(S)-(4-Fluorophenyl)(oxan-4-yl)methyl]-6-methanesulfonyl-3-[4-(^2H3)methyl-1-methyl-1H-1,2,3-triazol-5-yl]-5H-pyrido[3,2-b]indol-9-yl}-1λ^6,2-thiazolidine-1,1-dione]
pIC50: > 9.00

[2H]C([2H])([2H])c1nnn(C)c1-c1cnc2c3c(N4CCCS4(=O)=O)ccc(S(C)(=O)=O)c3n([C@H](c3ccccc3F)C3CCOCC3)c2c1 [Example 34, 2-{5-[(S)-(2-Fluorophenyl)(oxan-4-yl)methyl]-6-methanesulfonyl-3-[4-(^2H3)methyl-1-methyl-1H-1,2,3-triazol-5-yl]-5H-pyrido[3,2-b]indol-9-yl}-1λ^6,2-thiazolidine-1,1-dione]
pIC50: > 9.00

[2H]C([2H])([2H])c1nnn(C)c1-c1cnc2c3c(N4CCCS4(=O)=O)ccc(S(C)(=O)=O)c3n(C(c3ncccc3F)C3CCOCC3)c2c1 (centres unmarked) [Example 35, 2-{5-[(3-Fluoropyridin-2-yl)(oxan-4-yl)methyl]-6-methanesulfonyl-3-[4-(^2H3)methyl-1-methyl-1H-1,2,3-triazol-5-yl]-5H-pyrido[3,2-b]indol-9-yl}-1λ^6,2-thiazolidine-1,1-dione]
pIC50: > 9.00

[2H]C([2H])([2H])c1nnn(C)c1-c1cnc2c3c(N4CCCS4(=O)=O)ccc(S(C)(=O)=O)c3n(C(c3ncccc3F)C3CCOCC3)c2c1 (centres unmarked) [Example 36, 2-{5-[(3-Fluoropyridin-2-yl)(oxan-4-yl)methyl]-6-methanesulfonyl-3-[4-(^2H3)methyl-1-methyl-1H-1,2,3-triazol-5-yl]-5H-pyrido[3,2-b]indol-9-yl}-1λ^6,2-thiazolidine-1,1-dione]
pIC50: > 5.82

[2H]C([2H])([2H])c1nnn(C)c1-c1cnc2c3c(N4CCCS4(=O)=O)ccc(S(C)(=O)=O)c3n([C@]([2H])(c3ccccc3F)C3CCOCC3)c2c1 [Example 37, 2-{5-[(S)-(2-Fluorophenyl)(oxan-4-yl)(^2H)methyl]-6-methanesulfonyl-3-[4-(^2H3)methyl-1-methyl-1H-1,2,3-triazol-5-yl]-5H-pyrido[3,2-b]indol-9-yl}-1λ^6,2-thiazolidine-1,1-dione]
pIC50: > 8.30

[2H]C([2H])([2H])c1nnn(C)c1-c1cnc2c3c(N4CCCS4(=O)=O)ccc(S(C)(=O)=O)c3n([C@]([2H])(c3ccccc3)C3CCOCC3)c2c1 [Example 38, 2-{6-Methanesulfonyl-3-[4-(^2H3)methyl-1-methyl-1H-1,2,3-triazol-5-yl]-5-[(S)-oxan-4-yl(phenyl)(^2H)methyl]-5H-pyrido[3,2-b]indol-9-yl}-1λ^6,2-thiazolidine-1,1-dione]
pIC50: > 8.30

[2H]C([2H])([2H])c1nnn(C)c1-c1cnc2c3cc(N4CCS(=O)(=O)CC4)ccc3n([C@H](c3ccc(F)cc3)C3CCOCC3)c2c1 [Example 39, 4-{5-[(S)-(4-Fluorophenyl)(oxan-4-yl)methyl]-3-[4-(^2H3)methyl-1-methyl-1H-1,2,3-triazol-5-yl]-5H-pyrido[3,2-b]indol-8-yl}-1λ^6-thiomorpholine-1,1-dione]
pIC50: > 8.30

[2H]C([2H])([2H])c1nnn(C)c1-c1cnc2c3cc(N4CCN(S(C)(=O)=O)CC4)ccc3n([C@H](c3ccc(F)cc3)C3CCOCC3)c2c1 [Example 40, 1-{5-[(S)-(4-Fluorophenyl)(oxan-4-yl)methyl]-3-[4-(^2H3)methyl-1-methyl-1H-1,2,3-triazol-5-yl]-5H-pyrido[3,2-b]indol-8-yl}-4-methanesulfonylpiperazine]
pIC50: > 9.00

[2H]C([2H])([2H])c1nnn(C)c1-c1cnc2c3cc(N4CCS(=O)(=O)CC4)ccc3n([C@H](c3ccccc3F)C3CCOCC3)c2c1 [Example 41, 4-{5-[(S)-(2-Fluorophenyl)(oxan-4-yl)methyl]-3-[4-(^2H3)methyl-1-methyl-1H-1,2,3-triazol-5-yl]-5H-pyrido[3,2-b]indol-8-yl}-1λ^6-thiomorpholine-1,1-dione]
pIC50: > 5.82

[2H]C([2H])([2H])c1nnn(C)c1-c1cnc2c3cc(N4CCN(S(C)(=O)=O)CC4)ccc3n([C@H](c3ccccc3F)C3CCOCC3)c2c1 [Example 42, 1-{5-[(S)-(2-Fluorophenyl)(oxan-4-yl)methyl]-3-[4-(^2Ha)methyl-1-methyl-1H-1,2,3-triazol-5-yl]-5H-pyrido[3,2-b]indol-8-yl}-4-methanesulfonylpiperazine]
pIC50: > 8.30

[2H]C([2H])([2H])c1nnn(C)c1-c1cnc2c3cc(N4CCc5ccccc5C4)ccc3n([C@H](c3ccc(F)cc3)C3CCOCC3)c2c1 [Example 43, 2-{5-[(S)-(4-Fluorophenyl)(oxan-4-yl)methyl]-3-[4-(^2H3)methyl-1-methyl-1H-1,2,3-triazol-5-yl]-5H-pyrido[3,2-b]indol-8-yl}-1,2,3,4-tetrahydroisoquinoline]
pIC50: > 8.30

Cc1nnn(C)c1-c1cnc2c3ccc(N4CCS(=O)(=O)CC4)cc3n([C@H](c3ccccc3)C3CCOCC3)c2c1 [Example 44, 4-[3-(Dimethyl-1H-1,2,3-triazol-5-yl)-5-[(S)-oxan-4-yl(phenyl)methyl]-5H-pyrido[3,2-b]-indol-7-yl]-1λ^6-thiomorpholine-1,1-dione]
pIC50: > 9.00

[2H]C([2H])([2H])c1nnn(C)c1-c1cnc2c3ccc(N4CCS(=O)(=O)CC4)cc3n([C@H](c3ccccc3)C3CCOCC3)c2c1 [Example 45, 4-{3-[4-(^2H3)Methyl-1-methyl-1H-1,2,3-triazol-5-yl]-5-[(S)-oxan-4-yl(phenyl)methyl]-5H-pyrido[3,2-b]indol-7-yl}-1λ^6-thiomorpholine-1,1-dione]
pIC50: > 8.30
